Read-outs that look alike come from different tables or passages of the source.
Test system: human umbilical vein endothelial cells (HUVEC)
Assay: HUVEC proliferation assay
Assay type: cell-based
Conditions: Homo sapiens, HUVEC, crude combinatorial urea library; for inhibition at 0.01 µM: 10 nM, read-out: Inhibition of HUVEC Proliferation % inhibition @ 10 nM; for inhibition at 0.05 µM: 50 nM
Procedure: HUVEC Proliferation Assay
This assay determines the ability of a test compound to inhibit the growth factor-stimulated proliferation of human umbilical vein endothelial cells (“HUVEC”). HUVEC cells (passage 3-4, Clonetics, Corp.) were thawed into EGM2 culture medium (Clonetics Corp) in T75 flasks. Fresh EGM2 medium was added to the flasks 24 hours later. Four or five days later, cells were exposed to another culture medium (F12K medium supplemented with 10% fetal bovine serum (FBS), 60 μg/ml endothelial cell growth supplement (ECGS), and 0.1 mg/ml heparin). Exponentially-growing HUVEC cells were used in experiments thereafter. Ten to twelve thousand HUVEC cells were plated in 96-well dishes in 100 μl of rich, culture medium (described above). The cells were allowed to attach for 24 hours in this medium. The medium was then removed by aspiration and 105 μl of starvation media (F12K+1% FBS) was added to each well. After 24 hours, 15 μl of test agent dissolved in 1% DMSO in starvation medium or this vehicle alone was added into each treatment well; the final DMSO concentration was 0.1%. One hour later, 30 μl of VEGF (30 ng/ml) in starvation media was added to all wells except those containing untreated controls; the final VEGF concentration was 6 ng/ml. Cellular proliferation was quantified 72 hours later by MTT dye reduction, at which time cells were exposed for 4 hours MTT (Promega Corp.). Dye reduction was stopped by addition of a stop solution (Promega Corp.) and absorbance at 595 λ was determined on a 96-well spectrophotometer plate reader.
IC50 values were calculated by curve-fitting the response of A^595 to various concentrations of the test agent; typically, seven concentrations separated by 0.5 log were employed, with triplicate wells at each concentration. For screening compound library plates, one or two concentrations (one well per concentration) were employed, and the % inhibition was calculated by the following formula:
% inhibition=(control−test) divided by (control−starvation) […]
control=A^595 when VEGF is present without test agent test=A^595 when VEGF is present with test agent starvation=A^595 when VEGF and test agent are both absent.

[1] = read-out: Inhibition of HUVEC Proliferation % inhibition @ 50 nM
[2] = Inhibition of HUVEC Proliferation, read-out: % inhibition @ 50 nM

Compound	inhibition at 0.01 µM	inhibition at 0.05 µM [1]	inhibition at 0.05 µM [2]
COc1cccc(C(=O)Nc2cccc(-c3csc(-c4sc(NC(=O)NCCNc5ccccc5)nc4N)n3)c2)c1	28%	62%	
COc1cccc(C(=O)Nc2cccc(-c3csc(-c4sc(NC(=O)NCC(C)O)nc4N)n3)c2)c1 (centres unmarked)	7%	126%	
COc1cccc(C(=O)Nc2cccc(-c3csc(-c4sc(NC(=O)NCCN5CCCCC5)nc4N)n3)c2)c1	22%	25%	
COc1cccc(C(=O)Nc2cccc(-c3csc(-c4sc(NC(=O)NCc5ccccc5)nc4N)n3)c2)c1	-11%	114%	
COc1cccc(C(=O)Nc2cccc(-c3csc(-c4sc(NC(=O)NCCCN5CCCCC5C)nc4N)n3)c2)c1 (centres unmarked)	-18%	55%	
COc1cccc(C(=O)Nc2cccc(-c3csc(-c4sc(NC(=O)NC5CCN(Cc6ccccc6)CC5)nc4N)n3)c2)c1	-22%	23%	
COc1cccc(C(=O)Nc2cccc(-c3csc(-c4sc(NC(=O)NCC(C)(C)CN(C)C)nc4N)n3)c2)c1	-25%	36%	
COc1cccc(C(=O)Nc2cccc(-c3csc(-c4sc(NC(=O)N[C@H]5CC[C@H](O)CC5)nc4N)n3)c2)c1	-6%	21%	
COc1cccc(C(=O)Nc2cccc(-c3csc(-c4sc(NC(=O)NCCC(=O)O)nc4N)n3)c2)c1	-1%	8%	
COCCNC(=O)Nc1nc(N)c(-c2nc(-c3cccc(NC(=O)c4cccc(OC)c4)c3)cs2)s1	35%	32%	
COc1cccc(C(=O)Nc2cccc(-c3csc(-c4sc(NC(=O)NCC(F)(F)F)nc4N)n3)c2)c1	20%	15%	
COc1cccc(C(=O)Nc2cccc(-c3csc(-c4sc(NC(=O)NCCCn5ccnc5)nc4N)n3)c2)c1	9%	39%	
COc1cccc(C(=O)Nc2cccc(-c3csc(-c4sc(NC(=O)NCCc5ccc(S(N)(=O)=O)cc5)nc4N)n3)c2)c1	34%	49%	
CCCCN(CC)CCNC(=O)Nc1nc(N)c(-c2nc(-c3cccc(NC(=O)c4cccc(OC)c4)c3)cs2)s1	1%	10%	
COc1cccc(C(=O)Nc2cccc(-c3csc(-c4sc(NC(=O)NCc5ccc(N(C)C)cc5)nc4N)n3)c2)c1	19%	67%	
COc1cccc(C(=O)Nc2cccc(-c3csc(-c4sc(NC(=O)NCP(=O)(O)O)nc4N)n3)c2)c1	-8%	38%	
COc1cccc(C(=O)Nc2cccc(-c3csc(-c4sc(NC(=O)NC(CO)CO)nc4N)n3)c2)c1	-17%	52%	
COc1cccc(C(=O)Nc2cccc(-c3csc(-c4sc(NC(=O)NCc5ccc(N)cc5)nc4N)n3)c2)c1	4%	35%	
COc1cccc(C(=O)Nc2cccc(-c3csc(-c4sc(NC(=O)N[C@@H](CO)C(N)=O)nc4N)n3)c2)c1	5%	24%	
COc1cccc(C(=O)Nc2cccc(-c3csc(-c4sc(NC(=O)NCCNC(C)=O)nc4N)n3)c2)c1	20%	77%	
COc1cccc(C(=O)Nc2cccc(-c3csc(-c4sc(NC(=O)N[C@H](CO)Cc5c[nH]cn5)nc4N)n3)c2)c1	16%	19%	
CCC(CO)NC(=O)Nc1nc(N)c(-c2nc(-c3cccc(NC(=O)c4cccc(OC)c4)c3)cs2)s1 (centres unmarked)	13%	62%	
COc1cccc(C(=O)Nc2cccc(-c3csc(-c4sc(NC(=O)NCCCC(=O)O)nc4N)n3)c2)c1	23%	24%	
COc1cccc(C(=O)Nc2cccc(-c3csc(-c4sc(NC(=O)NCCOCCO)nc4N)n3)c2)c1	13%	92%	
COc1cccc(C(=O)Nc2cccc(-c3csc(-c4sc(NC(=O)NCCN5CCOCC5)nc4N)n3)c2)c1	1%	121%	
COc1cccc(C(=O)Nc2cccc(-c3csc(-c4sc(NC(=O)NCCN5CCNCC5)nc4N)n3)c2)c1	4%	39%	
COc1cccc(C(=O)Nc2cccc(-c3csc(-c4sc(NC(=O)NCCc5ccccn5)nc4N)n3)c2)c1	-2%	128%	
COc1cccc(C(=O)Nc2cccc(-c3csc(-c4sc(NC(=O)NCCN5CCCC5)nc4N)n3)c2)c1	7%	17%	

Compound	inhibition at 0.01 µM	inhibition at 0.05 µM [1]	inhibition at 0.05 µM [2]
COCC(C)NC(=O)Nc1nc(N)c(-c2nc(-c3cccc(NC(=O)c4cccc(OC)c4)c3)cs2)s1 (centres unmarked)	8%	42%	
COc1cccc(C(=O)Nc2cccc(-c3csc(-c4sc(NC(=O)NCc5ccccn5)nc4N)n3)c2)c1	-5%	103%	
COc1cccc(C(=O)Nc2cccc(-c3csc(-c4sc(NC(=O)NCc5cccnc5)nc4N)n3)c2)c1	3%	105%	
COc1cccc(C(=O)Nc2cccc(-c3csc(-c4sc(NC(=O)NCc5ccncc5)nc4N)n3)c2)c1	-2%	116%	
COc1cccc(C(=O)Nc2cccc(-c3csc(-c4sc(NC(=O)NCC(O)CO)nc4N)n3)c2)c1 (centres unmarked)	-3%	42%	
COc1cccc(C(=O)Nc2cccc(-c3csc(-c4sc(NC(=O)NC(C)CO)nc4N)n3)c2)c1 (centres unmarked)	-3%	42%	
COc1cccc(C(=O)Nc2cccc(-c3csc(-c4sc(NC(=O)NCCCN(C)C)nc4N)n3)c2)c1	-8%	15%	
COc1cccc(C(=O)Nc2cccc(-c3csc(-c4sc(NC(=O)NCCN(C)C)nc4N)n3)c2)c1	-11%	46%	
COc1cccc(C(=O)Nc2cccc(-c3csc(-c4sc(NC(=O)NCC(C)(C)N)nc4N)n3)c2)c1	14%	3%	
CCN(CC)CCNC(=O)Nc1nc(N)c(-c2nc(-c3cc(NC(=O)c4cccc(OC)c4)c(F)cc3F)cs2)s1			40%
COc1cccc(C(=O)Nc2cc(-c3csc(-c4sc(NC(=O)NC5CC(C)(C)NC(C)(C)C5)nc4N)n3)c(F)cc2F)c1			89%
CCN(CC)CCCNC(=O)Nc1nc(N)c(-c2nc(-c3cc(NC(=O)c4cccc(OC)c4)c(F)cc3F)cs2)s1			89%
COc1cccc(C(=O)Nc2cc(-c3csc(-c4sc(NC(=O)NCC(N)=O)nc4N)n3)c(F)cc2F)c1			48%
COc1cccc(C(=O)Nc2cc(-c3csc(-c4sc(NC(=O)NCC(C)C)nc4N)n3)c(F)cc2F)c1			38%
COc1cccc(C(=O)Nc2cc(-c3csc(-c4sc(NC(=O)NCCc5cccnc5)nc4N)n3)c(F)cc2F)c1			100%
COc1cccc(C(=O)Nc2cc(-c3csc(-c4sc(NC(=O)NCCO)nc4N)n3)c(F)cc2F)c1			110%
COc1cccc(C(=O)Nc2cc(-c3csc(-c4sc(NC(=O)N[C@@H](CC(N)=O)C(N)=O)nc4N)n3)c(F)cc2F)c1			32%
CNC(=O)CNC(=O)Nc1nc(N)c(-c2nc(-c3cc(NC(=O)c4cccc(OC)c4)c(F)cc3F)cs2)s1			73%
COc1cccc(C(=O)Nc2cc(-c3csc(-c4sc(NC(=O)NCCc5cncn5C)nc4N)n3)c(F)cc2F)c1			58%
CCN1CCCC1CNC(=O)Nc1nc(N)c(-c2nc(-c3cc(NC(=O)c4cccc(OC)c4)c(F)cc3F)cs2)s1 (centres unmarked)			85%
COc1cccc(C(=O)Nc2cc(-c3csc(-c4sc(NC(=O)NC(C)CN(C)C)nc4N)n3)c(F)cc2F)c1 (centres unmarked)			64%
COc1cccc(C(=O)Nc2cc(-c3csc(-c4sc(NC(=O)NCCCN5CCCC5)nc4N)n3)c(F)cc2F)c1			92%
COc1cccc(C(=O)Nc2cc(-c3csc(-c4sc(NC(=O)NCCN(C(C)C)C(C)C)nc4N)n3)c(F)cc2F)c1			82%
COc1cccc(C(=O)Nc2cc(-c3csc(-c4sc(NC(=O)NCCCN5CCN(C)CC5)nc4N)n3)c(F)cc2F)c1			95%
COc1cccc(C(=O)Nc2cc(-c3csc(-c4sc(NC(=O)NCCN5CCNC5=O)nc4N)n3)c(F)cc2F)c1			78%
COc1cccc(C(=O)Nc2cc(-c3csc(-c4sc(NC(=O)NCCC(N)=O)nc4N)n3)c(F)cc2F)c1			48%
CCN(CC)CCCC(C)NC(=O)Nc1nc(N)c(-c2nc(-c3cc(NC(=O)c4cccc(OC)c4)c(F)cc3F)cs2)s1 (centres unmarked)			84%

From patent US6620828B2, “Thiazole compounds and pharmaceutical compositions for inhibiting protein kinases and methods for their use” (Agouron Pharmaceuticals, Inc., priority 1999, dated 2003)
